Data from patent US9345732B2, “Agents derived from Holoptelea integrifolia and their compositions for the control of metabolic syndrome and associated diseases” (Laila Nutraceuticals, priority 2009, dated 2016).

Test: Diet induced metabolic syndrome model in SD rats (body weight, fat tissue weight, serum lipids)
Assay type: in vivo, Sprague Dawley Rats
Details: end of 8 weeks treatment, Composition-1 250 mg/kg or sibutramine 7 mg/kg (FIG. 6A)
Procedure: The extracts of Holoptelea integrifolia were then combined with other herbal extracts and tested for their efficacy. […] The Metabolic syndrome was induced in Sprague Dawley Rats by feeding the rats high fat and high cholesterol diet containing roasted bengal gram, sucrose, milk powder, mineral salt mixture, yeast, butter, groundnut oil and cholesterol for 8 weeks. Following 8 weeks induction phase, the animals were treated daily either with 250 mg/kg body weight of composition-1 or 7 mg/kg body weight of sibutramine in 10 mL of 0.5% CMC for further 8 weeks. The control group of animals were received only the vehicle (10 mL of 0.5% CMC) during this period.
Animals were acclimatized for 7 days prior to study initiation. […]
Following 8 weeks induction phase, the animals were treated orally with 250 mg/kg body weight of Composition-1 or 7 mg/kg body weight of sibutramine in 10 mL of 0.5% CMC for further 8 weeks. […] Body weight of individual animal was recorded weekly in the entire duration of the study. […]
Various biochemical parameters including lipid profile were tested using biochemistry reagents supplied by Human, Germany, in an automated clinical chemistry analyzer HumaStar300, Make: Human, Germany. Mean values of the biochemical parameters estimated before induction, after induction/before treatment and after treatment were measured and compared.

Q: For `CC(C)CC(N(C)C)C1(c2ccc(Cl)cc2)CCC1` (stereo not shown) [Sibutramine], which serum cholesterol levels is on record?
A: statistically significant reduction
